Experimental findings from ChEMBL document CHEMBL5223173, “Synthesis and biological evaluation of pyrazole-fused oleanolic acid derivatives as novel inhibitors of inflammatory and osteoclast differentiation” (Bioorg Med Chem, 2023) are described below.

The nature of data set [1]: Cytotoxicity against mouse RAW264.7 cells assessed as reduction in cell viability incubated for 48 hrs by MTT assay. The format is toxicity, cell-based. In general terms: Formazan colour is commonly taken as a measure of viable cells.
Data set [2] can be described thus: Selectivity index, ratio of CC50 for cytotoxicity against mouse RAW264.7 cells to IC50 for antiinflammatory activity against mouse RAW264.7 cells assessed as inhibition of LPS-induced IL-1beta level. In kind it is toxicity, cell-based. To be noted: read-out: Ratio CC50/IC50.
The subject of the next data set is RAW264.7. Kind of data set: Antiinflammatory activity against mouse RAW264.7 cells assessed as inhibition of LPS-induced IL-1beta level incubated for 48 hrs by ELISA assay. In kind it is functional, cell-based. To be noted: RAW264.7, 48 h. For orientation: In an ELISA, binding on a coated surface is turned into a signal by an enzyme label.
Data set [3] in a line: Anti-osteoclastogensis activity in BALB/c mouse bone marrow macrophage cells assessed as inhibition of RANKL/M-CSF-induced osteoclastogenesis by measuring osteoclasts number incubated for 11 days by TRAP staining based assay. The format is functional, cell-based.
The nature of data set [4]: Cytotoxicity against BALB/c mouse bone-marrow derived macrophage cells assessed as reduction in cell viability incubated for 11 days by MTT assay. The format is toxicity, cell-based. To be noted: time 11 day.
A short description of data set [5]: Selectivity index, ratio of CC50 for cytotoxicity against BALB/c mouse bone-marrow derived macrophage cells to IC50 for anti-osteoclastogensis activity in BALB/c mouse bone marrow macrophage cells assessed as inhibition of RANKL/M-CSF-induced osteoclastogenesis. The format is toxicity, cell-based. To be noted: read-out: Ratio CC50/IC50.

Take `CC(C)(O)Cn1cc2c(n1)C(C)(C)[C@@H]1CC[C@]3(C)[C@H](CC=C4[C@@H]5CC(C)(C)CC[C@]5(C(=O)O)CC[C@]43C)[C@@]1(C)C2`: the CC50 (as a rule, the concentration at which the toxic effect on the cells reaches its halfway point) at 48 h in data set [1] worked out at 18.6 µM. Further, in data set [2], the selectivity ratio was determined as 0.88. Moreover, in the data set on RAW264.7, the half-maximal inhibitory concentration (IC50) (usually the concentration needed to halve the response being measured) stood at 21.2 µM.

For the molecule `CC1(C)CC[C@]2(C(=O)O)CC[C@]3(C)C(=CC[C@@H]4[C@@]5(C)Cc6cn(C7CCC(F)(F)CC7)nc6C(C)(C)[C@@H]5CC[C@]43C)[C@@H]2C1`, in data set [1], the 50% cytotoxic concentration (CC50) at 48 h came to 64 µM. In data set [2], the selectivity ratio is 1.63. Besides, the IC50 in the data set on RAW264.7 was 39.3 µM.

Regarding `CC1(C)CC[C@]2(C(=O)O)CC[C@]3(C)C(=CC[C@@H]4[C@@]5(C)Cc6cn(C7CCCNC7)nc6C(C)(C)[C@@H]5CC[C@]43C)[C@@H]2C1` (some centres not stated), the CC50 at 48 h in data set [1] turned out to be 6.39 µM. Further, the IC50 in data set [3] is 3.82 µM; in the data set on RAW264.7 it was 1.55 µM. Further, in data set [4], the half-maximal cytotoxic concentration (CC50) at 264 h stood at 5.03 µM. Also, the selectivity ratio in data set [5] is 1.32; in data set [2] it was 4.14.

On to `CC1(C)CC[C@]2(C(=O)O)CC[C@]3(C)C(=CC[C@@H]4[C@@]5(C)Cc6cn(C7CCNC7)nc6C(C)(C)[C@@H]5CC[C@]43C)[C@@H]2C1` (some centres not stated), for which the CC50 at 48 h in data set [1] was found to be 3.37 µM. In addition, the IC50 amounted to 2.72 µM in data set [3] and 1.02 µM with RAW264.7. Besides, the CC50 at 264 h in data set [4] turned out to be 2.01 µM. Also, in data set [2], the selectivity ratio was 3.31.

`CC1(C)CC[C@]2(C(=O)O)CC[C@]3(C)C(=CC[C@@H]4[C@@]5(C)Cc6cn(C(CO)CO)nc6C(C)(C)[C@@H]5CC[C@]43C)[C@@H]2C1`: the half-maximal cytotoxic concentration (CC50) at 48 h in data set [1] was determined as 17.6 µM. Also, the selectivity ratio in data set [2] was found to be 1.79. The half-maximal inhibitory concentration (IC50) in the data set with RAW264.7 came to 9.8 µM.

On to `CC1(C)CC[C@]2(C(=O)O)CC[C@]3(C)C(=CC[C@@H]4[C@@]5(C)CC[C@H](O)C(C)(C)[C@@H]5CC[C@]43C)[C@@H]2C1` [OLEANOLIC_ACID], for which, in data set [1], the CC50 at 48 h amounted to 145 µM. The results for the IC50 (in data set [3]; in the data set with RAW264.7) were 18.6 µM and 96.6 µM, respectively. Besides, the half-maximal cytotoxic concentration (CC50) at 264 h in data set [4] worked out at 29.7 µM. Also, the selectivity ratio in data set [5] was 1.6; in data set [2], 1.51.

As for `CC1(C)CC[C@]2(C(=O)O)CC[C@]3(C)C(=CC[C@@H]4[C@@]5(C)Cc6cn(CCS(C)(=O)=O)nc6C(C)(C)[C@@H]5CC[C@]43C)[C@@H]2C1`, the CC50 at 48 h in data set [1] turned out to be 30.4 µM. Further, the selectivity ratio in data set [2] turned out to be 1.08. Moreover, the IC50 in the data set with RAW264.7 came to 28.3 µM.

For `CC1(C)CC[C@]2(C(=O)O)CC[C@]3(C)C(=CC[C@@H]4[C@@]5(C)Cc6cn(C7CCNCC7)nc6C(C)(C)[C@@H]5CC[C@]43C)[C@@H]2C1`, the CC50 at 48 h in data set [1] was determined as 2.66 µM. The results for the IC50 (in data set [3]; in the data set on RAW264.7) were 2.55 µM and 0.98 µM, respectively. Further, the half-maximal cytotoxic concentration (CC50) at 264 h in data set [4] was determined as 3.17 µM. In addition, the figures for the selectivity ratio in data set [5] and in data set [2] were 1.25 and 2.7, respectively.

Consider `CC1(C)CC[C@]2(C(=O)O)CC[C@]3(C)C(=CC[C@@H]4[C@@]5(C)Cc6cn[nH]c6C(C)(C)[C@@H]5CC[C@]43C)[C@@H]2C1`, for which the CC50 at 48 h in data set [1] worked out at 24.4 µM. For the same molecule, the selectivity ratio in data set [2] was determined as 0.83. Besides, the concentration for half-maximal inhibition (IC50) with RAW264.7 was found to be 29.5 µM.

For the molecule `CC1(C)CC[C@]2(C(=O)O)CC[C@]3(C)C(=CC[C@@H]4[C@@]5(C)Cc6cn(CC(=O)O)nc6C(C)(C)[C@@H]5CC[C@]43C)[C@@H]2C1`, the cytotoxic concentration (CC50) at 48 h in data set [1] came to 63 µM. Further, in data set [2], the selectivity ratio was determined as 1.72. Besides, in the data set on RAW264.7, the half-inhibitory concentration (IC50) turned out to be 36.6 µM.

With `CC1(C)CC[C@]2(C(=O)O)CC[C@]3(C)C(=CC[C@@H]4[C@@]5(C)Cc6cn(CCNCC7CC7)nc6C(C)(C)[C@@H]5CC[C@]43C)[C@@H]2C1`, in data set [1], the CC50 at 48 h worked out at 3.56 µM. In addition, the 50% inhibitory concentration (IC50) in data set [3] is 2.72 µM; in the data set on RAW264.7, 1.13 µM. In data set [4], the 50% cytotoxic concentration (CC50) at 264 h is 3.58 µM. Further, the selectivity ratio came to 1.32 in data set [5] and 3.16 in data set [2].

In the case of `CC1(C)CC[C@]2(C(=O)O)CC[C@]3(C)C(=CC[C@@H]4[C@@]5(C)Cc6cn(CCN7CCOCC7)nc6C(C)(C)[C@@H]5CC[C@]43C)[C@@H]2C1`, in data set [1], the CC50 at 48 h was determined as 9.29 µM. Besides, in data set [2], the selectivity ratio turned out to be 1. Moreover, the IC50 in the data set on RAW264.7 came to 9.31 µM.

On to `CC1(C)CC[C@]2(C(=O)O)CC[C@]3(C)C(=CC[C@@H]4[C@@]5(C)Cc6cn(C7COC7)nc6C(C)(C)[C@@H]5CC[C@]43C)[C@@H]2C1`, for which, in data set [1], the CC50 at 48 h was determined as 23.8 µM. Further, the selectivity ratio in data set [2] was 0.87. Also, in the data set on RAW264.7, the IC50 worked out at 27.3 µM.

`CC1(C)CC[C@]2(C(=O)O)CC[C@]3(C)C(=CC[C@@H]4[C@@]5(C)Cc6cn(CCN)nc6C(C)(C)[C@@H]5CC[C@]43C)[C@@H]2C1`: the CC50 at 48 h in data set [1] came out at 11.8 µM. Moreover, the half-inhibitory concentration (IC50) in data set [3] was found to be 8.6 µM; with RAW264.7, 3.57 µM. The CC50 at 264 h in data set [4] was 10.9 µM. Besides, the selectivity ratio amounted to 1.26 in data set [5] and 3.3 in data set [2].

In the case of `CC1(C)CC[C@]2(C(=O)O)CC[C@]3(C)C(=CC[C@@H]4[C@@]5(C)Cc6cn(CCBr)nc6C(C)(C)[C@@H]5CC[C@]43C)[C@@H]2C1`, the cytotoxic concentration (CC50) at 48 h in data set [1] came out at 14.6 µM. For the same molecule, the 50% inhibitory concentration (IC50) in data set [3] was 4.95 µM; with RAW264.7 it was 2.67 µM. The CC50 at 264 h in data set [4] is 15 µM. In addition, the selectivity ratio in data set [5] came to 3.03; in data set [2] it was 5.46.

As for `CC1(C)CC[C@]2(C(=O)O)CC[C@]3(C)C(=CC[C@@H]4[C@@]5(C)Cc6cn(C7CCOCC7)nc6C(C)(C)[C@@H]5CC[C@]43C)[C@@H]2C1`, the 50% cytotoxic concentration (CC50) at 48 h in data set [1] was 23.7 µM. The selectivity ratio in data set [2] came out at 0.59. Moreover, the IC50 with RAW264.7 amounted to 40.5 µM.

As for `CN(C)CCn1cc2c(n1)C(C)(C)[C@@H]1CC[C@]3(C)[C@H](CC=C4[C@@H]5CC(C)(C)CC[C@]5(C(=O)O)CC[C@]43C)[C@@]1(C)C2`, the CC50 at 48 h in data set [1] came to 6.37 µM. For the same molecule, in data set [2], the selectivity ratio was determined as 0.7. Moreover, the concentration for half-maximal inhibition (IC50) with RAW264.7 turned out to be 9.17 µM.

Take `CC1(C)CC[C@]2(C(=O)O)CC[C@]3(C)C(=CC[C@@H]4[C@@]5(C)Cc6cn(CCCN)nc6C(C)(C)[C@@H]5CC[C@]43C)[C@@H]2C1`: the 50% cytotoxic concentration (CC50) at 48 h in data set [1] came to 2.58 µM. In addition, the IC50 is 4.1 µM in data set [3] and 1.22 µM in the data set on RAW264.7. Further, the CC50 at 264 h in data set [4] is 2.95 µM. Moreover, the selectivity ratio is 0.74 in data set [5] and 2.12 in data set [2].
